{"source": "patent US20260242759A1", "about": "“GQ/11 Protein Peptidomimetics” (Vrije Universiteit Brussel, priority 2022, published 2026)", "key": {"[1]": {"target": "T1, ghrelin receptor (Homo sapiens, UniProt Q92847)", "T1 construct": "expressed in transfected cells; host or cells: HEK293 cells overexpressing the ghrelin receptor", "T1 sequence (Q92847 whole entry)": "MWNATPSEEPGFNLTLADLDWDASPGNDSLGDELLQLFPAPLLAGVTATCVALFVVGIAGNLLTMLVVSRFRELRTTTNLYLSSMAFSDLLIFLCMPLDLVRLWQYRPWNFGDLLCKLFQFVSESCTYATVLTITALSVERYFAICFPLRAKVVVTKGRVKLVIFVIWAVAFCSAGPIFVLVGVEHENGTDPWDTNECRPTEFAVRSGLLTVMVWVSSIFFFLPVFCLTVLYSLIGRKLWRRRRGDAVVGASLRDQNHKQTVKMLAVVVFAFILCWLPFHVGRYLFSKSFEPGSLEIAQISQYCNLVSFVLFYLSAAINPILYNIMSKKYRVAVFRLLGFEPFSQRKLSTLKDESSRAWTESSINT", "assay": "IP-One Gq assay", "assay_type": "cell-based", "conditions": "peptidomimetic at 10 μM, varying MK0677; FIG. 8", "method": "IP-One assays were conducted by using a homogeneous time-resolved fluorescence resonance energy transfer (TRFRET) assay (cisbio, IP-One Gq kit). The assays were performed on 384-well plates, containing 5000 cells/well. The HEK293 cells, in stimulation buffer (1×), were incubated with 5 or 10 μM of peptides (in stimulation buffer) during 1 h at 37° C. […] Finally, the d2-labeled IP1 and anti-IP1-cryptate, diluted in lysis buffer, were added to each well and incubated at room temperature. After 2 h of incubation in the dark, the plates were analyzed using the PHERAstar microplate reader.\nThe IP-One Gq assay detects the accumulation of inositol monophosphate (IP1), a metabolite produced following phospholipase C activation.\nThe assays were performed on 384-well plates containing HEK293 cells that overexpress the ghrelin receptor. First, the Gq/11 peptidomimetics were incubated during 1 h to allow penetration in the cells. […] After 45 min of incubation, the cells were lysed and d2-labeled IP1 (acceptor, 665 nm) was exogenously added to compete with the native unlabeled IP1 for binding with the anti-IP1-Cryptate (donor, 620 nm). Fluorescence was measured and the fluorescence ratio (665 nm/620 nm) was determined."}, "[2]": {"target": "T2, human muscarinic 1 receptor (M1R) (Homo sapiens, UniProt P11229)", "T2 construct": "The M1R constructs used in this assay consisted of the full-length human muscarinic 1 receptor; FLAG (N); expressed in transfected cells; membrane extracts", "T2 sequence (P11229 1-460)": "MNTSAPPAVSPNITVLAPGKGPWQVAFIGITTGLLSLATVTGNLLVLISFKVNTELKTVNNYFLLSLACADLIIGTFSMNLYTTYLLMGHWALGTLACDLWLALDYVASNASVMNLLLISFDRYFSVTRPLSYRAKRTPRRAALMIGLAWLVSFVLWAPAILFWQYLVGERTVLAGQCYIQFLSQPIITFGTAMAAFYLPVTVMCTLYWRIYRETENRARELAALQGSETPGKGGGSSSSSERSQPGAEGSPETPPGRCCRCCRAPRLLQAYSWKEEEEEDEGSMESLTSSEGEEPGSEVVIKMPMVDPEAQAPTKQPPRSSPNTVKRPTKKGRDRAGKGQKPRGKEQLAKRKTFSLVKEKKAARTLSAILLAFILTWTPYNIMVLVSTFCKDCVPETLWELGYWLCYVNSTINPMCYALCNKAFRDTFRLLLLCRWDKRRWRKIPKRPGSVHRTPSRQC", "assay": "Radioligand binding assay (RLA) on M1R membrane extracts", "conditions": "IC50 of agonist without mimetic divided by IC50 with mimetic; averaged value", "from_the_text": "A radioligand displacement assay can quantify the pharmacological stabilization of the GPCR in the active conformation by comparing the affinities of an agonist for the basal versus the active GPCR conformer. In particular, stabilization of a GPCR in an active conformational state or specific binding to a GPCR in an active conformational state by a G protein peptidomimetic or a Gq/11 protein peptidomimetic as disclosed herein can be determined based on the shift in IC50 value of a ligand, in particular an agonist more particularly an orthosteric agonist, which binds to the GPCR when tested in the presence and the absence of the G protein peptidomimetic or the Gq/11 protein peptidomimetic. During the assay, the binding affinity of an orthosteric agonist for the receptor in presence and absence of the (allosteric) peptidomimetic is determined. Therefore, the GPCR, e.g. embedded in membrane extracts, is incubated with a radioligand and different concentrations of the agonist. By increasing the agonist concentration, radioligand will be displaced by the agonist. A leftward shift of the curve in the presence of the peptidomimetic is indicative of a peptidomimetic capable of stabilizing a GPCR in an active conformational state. A “shift” in IC50 value or IC50 shift is defined herein as the IC50 ratio of a ligand, in particular an agonist, more particularly an orthosteric agonist, which binds to the GPCR in the absence of a G protein peptidomimetic or a Gq/11 protein peptidomimetic relative to the presence of the G protein peptidomimetic or the Gq/11 protein peptidomimetic, or the IC50 value of a ligand, in particular an agonist, for binding to the GPCR in the absence of a G protein peptidomimetic or a Gq/11 protein peptidomimetic divided by the IC50 value of the ligand in the presence of the G protein peptidomimetic or the Gq/11 protein peptidomimetic in the same preparation, wherein said IC50 values are determined in a radioligand binding assay or radioligand displacement assay (RLA) as known to the skilled person. For example, a human muscarinic acetylcholine 1 receptor (M1R) radioligand binding assay using ^3H—N-methyl scopolamine (^3H-NMS) as the radioligand and increasing concentrations of acetylcholine chloride (agonist) as cold competitor may be used.\nThe membrane extracts were prepared from cells that overexpressed muscarinic acetylcholine 1 receptor (M1R), by resuspending the cell pellet in a buffer (1 ml buffer/2×1E7 cells) containing 20 mM Hepes (pH 7.4), 100 mM NaCl, Leupeptin and phenylmethylsulfonyl fluoride (PMSF). Afterwards the cells were vortexed and homogenized in ice using a small volume ULTRA-TURRAX® (6×10 sec). The cells were then centrifuged for 15 min at 16000 rcf, in a pre-cooled centrifuge (4° C.) and resuspended in the previous buffer containing 10% sucrose. Finally, the membranes were again homogenized in ice with the small volume ULTRA-TURRAX® (3×10 sec). The protein concentration in the membrane extracts was determined using a Pierce™ bicinchoninic acidv (BCA) Protein Assay Kit and the protein concentration was extrapolated from the Bovine Serum Albumine standard curve.\nThe M1R constructs used in this assay consisted of the full-length human muscarinic 1 receptor with a FLAG tag at the N-terminus. A buffer containing 20 mM Hepes pH 7.4, 100 mM NaCl, and 0.1% BSA was used for the ligands, membrane extracts and peptides (+1% dimethylsulfoxide (DMSO)). The competition assay was performed with [3H]—N-methyl scopolamine ([3H]-NMS) as radiolabeled antagonist, at a final concentration of 0.6 nM. A ten-fold dilution series of the agonist, acetylcholine chloride, was prepared to obtain a dose response curve. After incubation, the samples were harvested into filter plates (GF/C) and washed with ice cold washing buffer (20 mM Hepes pH 7.4) using the 96-well harvester. […]"}}, "note": "Non-standard residues stand in square brackets, D forms with d. Residues, ends and D or L forms follow the SMILES beside them. Cha = N[C@@H](CC1CCCCC1)C(=O)O", "data": [{"smiles": "CC[C@H](C)[C@H](NC(=O)[C@@H](NC(=O)[C@H](CC(=O)O)NC(=O)[C@H](CCCCN)NC(=O)[C@@H](NC(=O)[C@H](C)NC(=O)[C@H](C)NC(=O)[C@H](Cc1ccccc1)NC(=O)[C@H](CCCCN)NC(=O)[C@H](CCCCN)NC(=O)[C@H](CCCCN)NC(C)=O)C(C)C)[C@@H](C)O)C(=O)N[C@@H](CC(C)C)C(=O)N[C@@H](CCC(N)=O)C(=O)N[C@@H](CC(C)C)C(=O)N[C@@H](CC(N)=O)C(=O)N[C@@H](CC(C)C)C(=O)N[C@@H](CCCCN)C(=O)N[C@@H](CCC(=O)O)C(=O)N[C@@H](Cc1ccc(O)cc1)C(=O)N[C@@H](CC(N)=O)C(=O)N[C@@H](CC1CCCCC1)C(=O)N[C@H](C(=O)O)C(C)C", "note": "[SBL-GQ-04] (Ac-KKKFAAVKDTILQLNLKEYN[Cha]V-OH)", "values": [{"measurement": "receptor activation / fluorescence ratio (665 nm/620 nm) vs absence of peptidomimetic", "setting": "[1]", "result": "Almost no difference in receptor activation"}, {"measurement": "Shift", "setting": "[2]", "result": 4}]}]}
